According to US4851211A, “LHRH analog formulations” (Abbott Laboratories, priority 1986, dated 1989):

What was measured:
[1] = Bioabsorption testing: leuprolide levels after inhalation of solution aerosol (radioimmunoassay); settings: aerosol compared with comparable intravenous dose
[2] = no counterion
[3] = ionizable site of leuprolide; cited from earlier work

solubility of leuprolide ([2]; mixtures of ethyl alcohol and fluorocarbons): ~3000 µg/mL
equilibrium solubility of leuprolide ([2]; mixtures of fluorocarbons, ethyl alcohol and water): ~5000 µg/mL
SMILES: CCNC(=O)[C@@H]1CCCN1C(=O)[C@H](CCCNC(=N)N)NC(=O)[C@H](CC(C)C)NC(=O)[C@@H](CC(C)C)NC(=O)[C@H](Cc1ccc(O)cc1)NC(=O)[C@H](CO)NC(=O)[C@H](Cc1c[nH]c2ccccc12)NC(=O)[C@H](Cc1c[nH]cn1)NC(=O)[C@@H]1CCC(=O)N1 [leuprolide, 5-Oxo-L-prolyl-L-histidyl-L-tryptophanyl-L-seryl-L-tyrosyl-D-leucyl-L-leucyl-L-arginyl-L-prolylethylamide acetate]
plasma peak concentration [1]: approximately equals that of a comparable dose administered intravenously
pKa, guanidine nitrogen of arginine [3]: approximately 13.0
pKa, imidazolyl nitrogen of histidine [3]: approximately 6.0
pKa, phenolic hydroxyl of tyrosine [3]: approximately 10.0
